Each structure is given as a SMILES string.

These results are taken from publication PMC5518657, “Deacetylation of mycothiol-derived ‘waste product’ triggers the last biosynthetic steps of lincosamide antibiotics” (Chemical Science, 2015).

The assay concerns the target T1, LmbF (Streptomyces lincolnensis, UniProt A9Y8R7).
T1 construct: recombinant protein; details only in ESI
In words: in vitro turnover of […] with and without PLP, LC-MS. Format: biochemical. The following applies: no turnover without PLP; covalent binding to the substrate amino group is proposed.

T1 sequence (A9Y8R7 entry or part of it): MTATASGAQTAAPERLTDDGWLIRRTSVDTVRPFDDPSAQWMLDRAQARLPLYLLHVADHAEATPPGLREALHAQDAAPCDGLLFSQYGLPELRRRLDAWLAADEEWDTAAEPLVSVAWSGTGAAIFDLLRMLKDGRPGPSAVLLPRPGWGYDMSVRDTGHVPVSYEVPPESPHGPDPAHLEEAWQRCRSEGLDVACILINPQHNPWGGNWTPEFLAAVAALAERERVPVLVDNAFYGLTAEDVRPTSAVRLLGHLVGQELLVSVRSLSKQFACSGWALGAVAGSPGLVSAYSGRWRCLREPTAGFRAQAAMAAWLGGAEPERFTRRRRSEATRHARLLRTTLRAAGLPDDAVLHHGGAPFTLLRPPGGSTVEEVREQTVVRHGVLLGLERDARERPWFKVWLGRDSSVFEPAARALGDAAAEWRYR

Turning to `Cc1ncc(COP(=O)(O)O)c(C=O)c1O` [pyridoxal-5′-phosphate], the “in vitro turnover of 479 with and without PLP, LC-MS” value was “LmbF failed to carry out this reaction in the absence of PLP”.
